In US20130165368A1, “ANTIMICROBIAL COMPOUNDS” (priority 2010, published 2013):

System: MRSA NCTC 11939
Assay: Synergy testing: disc susceptibility, zone of inhibition on agar containing Laureth derivative
Type: cell-based, Staphylococcus aureus
Experimental: There now follows data relating to a screen for synergistic interaction between Laureth derivatives [C12E1 to C12E8] and 12 conventional anti-staphylococcal agents.
Ethoxylated Lauryl Alcohol Derivative Preparation As plates containing quarter strength of the MIC of NCTC 11939 are needed, and therefore very small weights of each compound, they were prepared at twenty time strength in 20 mL volumes in plastic universals. Once prepared these solutions were diluted […] by adding 1 mL to 1 mL SDW, resulting a 2 mL volume at ten times strength. This was undertaken in duplicate to create two identical plates.
IST was prepared as previously stated in above. 18 mL agar was added to each universal and then poured into sterile Petri dishes. Control plates were prepared as stated above
A 0.5 McFarland suspension of MRSA NCTC 11939 was prepared using SDW. This was then adjusted to a concentration of 1.5×107 by adding 200 μL to 1.8 mL of SDW. Once diluted, a sterile cotton swab was used to spread the suspension evenly across the entire surface of each agar plate.
Twelve antibiotics discs were added to the plates, 6 per plate in a circle. The plates were then incubated aerobically at 37° C.
The diameter of the zones of clearance were measured and recorded in millimetres. The zones for each compound were compared to the control and to BSAC breakpoints.
A variation of zone size within 2 mm is within acceptable limits of assay reproducibility.

[1] = antibiotic disc in the presence of L1 [C12E1] 0.005 mmol/L
[2] = antibiotic disc in the presence of L2 [C12E2] 0.0275 mmol/L
[3] = antibiotic disc in the presence of L3 [C12E3] 0.01375 mmol/L
[4] = antibiotic disc in the presence of L4 [C12E4] 0.0275 mmol/L
[5] = antibiotic disc in the presence of L5 [C12E5] 0.0275 mmol/L
[6] = antibiotic disc in the presence of L6 [C12E6] 0.0275 mmol/L
[7] = antibiotic disc in the presence of L7 [C12E7] 0.0275 mmol/L
[8] = antibiotic disc in the presence of L8 [C12E8] 0.055 mmol/L
[9] = antibiotic disc, Control, 0 mmol/L Laureth derivative

| Compound | Zone of Inhibition [1] | Zone of Inhibition [2] | Zone of Inhibition [3] | Zone of Inhibition [4] | Zone of Inhibition [5] | Zone of Inhibition [6] | Zone of Inhibition [7] | Zone of Inhibition [8] | Zone of Inhibition [9] |
| --- | --- | --- | --- | --- | --- | --- | --- | --- | --- |
| CN[C@H](CC(C)C)C(=O)N[C@H]1C(=O)N[C@@H](CC(N)=O)C(=O)N[C@H]2C(=O)N[C@H]3C(=O)N[C@H](C(=O)N[C@H](C(=O)O)c4cc(O)cc(O)c4-c4cc3ccc4O)[C@H](O)c3ccc(c(Cl)c3)Oc3cc2cc(c3O[C@@H]2O[C@H](CO)[C@@H](O)[C@H](O)[C@H]2O[C@H]2C[C@](C)(N)[C@H](O)[C@H](C)O2)Oc2ccc(cc2Cl)[C@H]1O [Vancomycin] | 21 mm | 21 mm | 19 mm | 21 mm | 20 mm | 20 mm | 20 mm | 23 mm | – |
| O=C(N[C@H](CO)[C@H](O)c1ccc([N+](=O)[O-])cc1)C(Cl)Cl [Chloramphenicol] | 22 mm | 22 mm | 24 mm | 23 mm | 25 mm | 23 mm | 22 mm | 23 mm | – |
| CCC[C@@H]1C[C@@H](C(=O)N[C@@H]([C@H]2O[C@H](SC)[C@H](O)[C@@H](O)[C@H]2O)[C@H](C)Cl)N(C)C1 [Clindamycin] | 33 mm | 32 mm | 32 mm | 34 mm | 33 mm | 33 mm | 34 mm | 35 mm | – |
| CC(=O)O[C@H]1C[C@@]2(C)[C@@H](C[C@@H](O)[C@H]3[C@@]4(C)CC[C@@H](O)[C@@H](C)[C@@H]4CC[C@@]32C)/C1=C(\CCC=C(C)C)C(=O)O [Fusidic Acid] | 36 mm | 37 mm | 35 mm | 38 mm | 37 mm | 39 mm | 37 mm | – | – |
| CN(C)[C@@H]1C(O)=C(C(N)=O)C(=O)[C@@]2(O)C(O)=C3C(=O)c4c(O)cccc4[C@@](C)(O)[C@H]3C[C@@H]12 [Tetracycline] | 34 mm | 35 mm | 35 mm | 36 mm | 32 mm | 35 mm | 36 mm | – | – |
| COc1c(N2C[C@@H]3CCCN[C@@H]3C2)c(F)cc2c(=O)c(C(=O)O)cn(C3CC3)c12 [Moxyfloxacin] | 14 mm | 14 mm | 16 mm | 14 mm | 13 mm | 14 mm | 18 mm | – | 15 mm |
| CO[C@H]1/C=C/O[C@@]2(C)Oc3c(C)c(O)c4c(O)c(c(/C=N/N5CCN(C)CC5)c(O)c4c3C2=O)NC(=O)/C(C)=C\C=C\[C@H](C)[C@H](O)[C@@H](C)[C@@H](O)[C@@H](C)[C@H](OC(C)=O)[C@@H]1C [Rifampicin] | 37 mm | 37 mm | 37 mm | 40 mm | 39 mm | 40 mm | 39 mm | – | – |
| COc1cc(Cc2cnc(N)nc2N)cc(OC)c1OC [Trimethoprim] | 29 mm | 30 mm | 28 mm | 31 mm | 30 mm | 31 mm | 30 mm | – | – |
| CC[C@H]1OC(=O)[C@H](C)[C@@H](O[C@H]2C[C@@](C)(OC)[C@@H](O)[C@H](C)O2)[C@H](C)[C@@H](O[C@@H]2O[C@H](C)C[C@H](N(C)C)[C@H]2O)[C@](C)(O)C[C@@H](C)C(=O)[C@H](C)[C@@H](O)[C@]1(C)O [Erythromycin] | 7 mm | 7 mm | 7 mm | 8 mm | 7 mm | 7 mm | 7 mm | 8 mm | – |
| C/C(=C\C(=O)OCCCCCCCCC(=O)O)C[C@@H]1OC[C@H](C[C@@H]2O[C@H]2[C@@H](C)[C@H](C)O)[C@@H](O)[C@H]1O [Muprocin] | 32 mm | 33 mm | 32 mm | 34 mm | 32 mm | 33 mm | 34 mm | 35 mm | 33 mm |
| Gentamicin | 27 mm | 27 mm | 27 mm | 29 mm | 28 mm | 30 mm | 30 mm | 33 mm | 28 mm |
